Laboratory results taken from patent publication US20230203081A1, “LINCOSAMIDE ANTIBIOTICS AND USES THEREOF” (President and Fellows of Harvard College, priority 2020, published 2023).

Experiments:
Format in all cases: cell-based
S. aureus MP-549 msrA = assay: microbe, parasite or virus in culture; settings: S. aureus HAV#032, MP-549; MSR(A)
Summary of the method: (§1)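 Inoculum for broth microdilution was 5×10^5 CFU/mL final, prepared from overnight 35° C blood-agar subcultures (separate handling for streptococcal and anaerobic strains); MICs read by CLSI broth microdilution or agar dilution.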

S. aureus BAA 977 iErmA = assay: microbe, parasite or virus in culture; settings: S. aureus #HAV002, ATCC BAA 977; iErmA, MRSA
Summary of the method: as §1

E. coli ΔTolC = assay: microbe, parasite or virus in culture; settings: E. coli HAV#038; ΔTolC
Summary of the method: as §1

[1] = tested on: broad panel of different clinical isolates; assay: organism not typed
Summary of the method: as §1

E. coli armA = assay: microbe, parasite or virus in culture; settings: E. coli HAV#056; Clinical, armA
Summary of the method: as §1

S. aureus hVISA = assay: MIC (broth microdilution or agar dilution, CLSI); settings: S. aureus HAV#204, hVISA
Summary of the method: as §1

K. pneumoniae ATCC 10031 = assay: MIC (broth microdilution or agar dilution, CLSI); settings: K. pneumoniae HAV#008, ATCC 10031
Summary of the method: as §1

S. aureus ATCC 29213 = assay: MIC (broth microdilution or agar dilution, CLSI); settings: S. aureus HAV#001, ATCC 29213, MP-549
Summary of the method: as §1

S. pneumoniae ATCC 6303 = assay: MIC (broth microdilution or agar dilution, CLSI); settings: S. pneumoniae HAV#351, ATCC 6303
Summary of the method: as §1

[2] = tested on: S. pneumoniae MMX 3031 cMefA; assay: MIC (broth microdilution or agar dilution, CLSI); settings: S. pneumoniae HAV#034; MMX 3031, cMefA
Summary of the method: as §1

[3] = tested on: S. aureus ATCC BAA-1707 (MRSA); assay: MIC (broth microdilution or agar dilution, CLSI); settings: S. aureus HAV#016, ATCC BAA-1707; MRSA
Summary of the method: as §1

S. aureus MMX 3035 cErmA = assay: MIC (broth microdilution or agar dilution, CLSI); settings: S. aureus HAV#031, MMX 3035; cErmA
Summary of the method: as §1

E. coli LptD = assay: MIC (broth microdilution or agar dilution, CLSI); settings: E. coli HAV#040; LptD
Summary of the method: as §1

[4] = tested on: E. faecalis MMX 847; cErmB; assay: MIC (broth microdilution or agar dilution, CLSI); settings: E. faecalis HAV#036, MMX 847; mac-resistant, cErmB
Summary of the method: as §1

S. aureus ATCC 700699 = assay: MIC (broth microdilution or agar dilution, CLSI); settings: S. aureus HAV#202, ATCC 700699 (VISA)
Summary of the method: as §1

[5] = tested on: S. pneumoniae MMX 3028 cErmB; assay: MIC (broth microdilution or agar dilution, CLSI); settings: S. pneumoniae HAV#033; MMX 3028, cErmB
Summary of the method: as §1

[6] = tested on: S. pyogenes MMX 946; cErmB; assay: MIC (broth microdilution or agar dilution, CLSI); settings: S. pyogenes HAV#035, MMX 946; cErmB, mac-resistant
Summary of the method: as §1

E. faecalis ATCC 29212 = assay: MIC (broth microdilution or agar dilution, CLSI); settings: E. faecalis HAV#005, ATCC 29212
Summary of the method: as §1

S. pneumoniae ATCC 49619 = assay: MIC (broth microdilution or agar dilution, CLSI); settings: S. pneumoniae HAV#003, ATCC 49619
Summary of the method: as §1

Gentamicin
MIC (S. aureus MP-549 msrA): 1 µg/mL | MIC (S. aureus BAA 977 iErmA): 2 µg/mL | MIC (E. coli ΔTolC): 1 µg/mL | MIC ([1]; A. baumannii HAV#651, Clinical): 2 µg/mL | MIC ([1]; A. baumannii HAV#652 Clinical): 16 µg/mL | MIC ([1]; A. baumannii HAV#653, Clinical): 0.5 µg/mL | MIC ([1]; A. baumannii HAV#654, Clinical): 2 µg/mL | MIC ([1]; A. baumannii HAV#655, Clinical): 2 µg/mL | MIC ([1]; A. baumannii HAV#656, Clinical): 4 µg/mL | MIC ([1]; A. baumannii HAV#657, Clinical): 4 µg/mL | MIC ([1]; A. baumannii HAV#658, Clinical): 1 µg/mL | MIC ([1]; A. baumannii HAV#659, Clinical): 32 µg/mL | MIC ([1]; A. baumannii HAV#660, Clinical): 32 µg/mL | MIC ([1]; A. baumannii HAV#661, Clinical): 1 µg/mL | MIC ([1]; A. baumannii HAV#662, Clinical): 4 µg/mL | MIC ([1]; A. baumannii HAV#663, Clinical): 0.5 µg/mL | MIC ([1]; A. baumannii HAV#664, Carbapenem R): >128 µg/mL | MIC ([1]; E. coli HAV#501, Clinical): 2 µg/mL | MIC ([1]; E. coli HAV#503, Clinical): 4 µg/mL | MIC ([1]; E. coli HAV#511, Clinical): 16 µg/mL | MIC ([1]; E. coli HAV#512, Clinical): 2 µg/mL | MIC ([1]; E. coli HAV#513, Clinical): 2 µg/mL | MIC ([1]; E. coli HAV#514, Clinical): 1 µg/mL | MIC ([1]; E. coli HAV#516, ESBL-producing): 2 µg/mL | MIC ([1]; E. faecalis HAV#251, Clinical VRE): 16 µg/mL | MIC ([1]; E. faecalis HAV#606, Clinical, VRE): >256 µg/mL | MIC ([1]; E. faecalis HAV#607, Clinical): >256 µg/mL | MIC ([1]; E. faecalis HAV#608, Clinical): >256 µg/mL | MIC ([1]; E. faecalis HAV#609, Clinical): >256 µg/mL | MIC ([1]; E. faecalis HAV#610, Clinical): >256 µg/mL | MIC ([1]; E. faecalis HAV#611, Line R & Vanco R): >128 µg/mL | MIC ([1]; E. faecalis HAV#612, Line R): >128 µg/mL | MIC ([1]; E. faecium HAV#317, Clinical): 16 µg/mL | MIC ([1]; E. faecium HAV#318, VanA, VRE): 8 µg/mL | MIC ([1]; E. faecium HAV#324, Clinical): >256 µg/mL | MIC ([1]; E. faecium HAV#327, Clinical): 8 µg/mL | MIC ([1]; E. faecium HAV#328, Clinical): >256 µg/mL | MIC ([1]; E. faecium HAV#329, Clinical): 4 µg/mL | MIC ([1]; H. influenzae HAV#376, ATCC-9007): 4 µg/mL | MIC ([1]; K. pneumoniae HAV#041, Clinical, KPC): 8 µg/mL | MIC ([1]; K. pneumoniae HAV#404, Clinical): 0.5 µg/mL | MIC ([1]; K. pneumoniae HAV#405, Clinical): 0.5 µg/mL | MIC ([1]; K. pneumoniae HAV#406, Clinical): 1 µg/mL | MIC ([1]; K. pneumoniae HAV#407, Clinical): 0.5 µg/mL | MIC ([1]; K. pneumoniae HAV#408, Clinical): 2 µg/mL | MIC ([1]; K. pneumoniae HAV#409, ESBL-producing): 0.5 µg/mL | MIC ([1]; S. aureus HAV#017, MRSA Col(Colindale, England)): 0.5 µg/mL | MIC ([1]; S. aureus HAV#051, mecA, norA, spcl, ermA, aad1, aac6′-aph2″): 2 µg/mL | MIC ([1]; S. aureus HAV#052, mecA, norA, fosB, blaZ): 1 µg/mL | MIC ([1]; S. aureus HAV#053 mecA, norA, fosB): 1 µg/mL | MIC ([1]; S. aureus HAV#054, mecA, norA, spcl, aad1, fosB, ermA, aac6′-aph2″, blaZ): 128 µg/mL | MIC ([1]; S. aureus HAV#203, Clinical (VISA)): >64 µg/mL | MIC ([1]; S. aureus HAV#216, Clinical, cfr): 8 µg/mL | MIC ([1]; S. aureus HAV#217, cfr): 4 µg/mL | MIC ([1]; S. epidermidis HAV# 275 Clinical, cfr): >64 µg/mL | MIC ([1]; S. epidermidis HAV# 276, cfr): >64 µg/mL | MIC ([1]; S. haemolyticus HAV#252, Line R & Methicillin R): >128 µg/mL | MIC (E. coli armA): >256 µg/mL | MIC (S. aureus hVISA): >64 µg/mL | MIC (K. pneumoniae ATCC 10031): 0.25 µg/mL | MIC (S. aureus ATCC 29213): 1 µg/mL | MIC (S. pneumoniae ATCC 6303): 32 µg/mL | MIC [2]: 8 µg/mL | MIC [3]: 1 µg/mL | MIC (S. aureus MMX 3035 cErmA): 1 µg/mL | MIC (E. coli LptD): 1 µg/mL | MIC [4]: >64 µg/mL | MIC (S. aureus ATCC 700699): >64 µg/mL | MIC [5]: 4 µg/mL | MIC [6]: 16 µg/mL | MIC (E. faecalis ATCC 29212): 16 µg/mL | MIC (S. pneumoniae ATCC 49619): 16 µg/mL
